The nature of this series: logP determination by HPLC on a reversed-phase column (C 18), EEC Directive 79/831 Annex V.A8. In kind it is physicochemical. How it is done:
The stated logP values were determined in accordance with EEC Directive 79/831 Annex V.A8 by HPLC (high performance liquid chromatography) on a reversed-phase column (C 18). Temperature: 43° C.

[1] abbreviates: method marker [b], isomer A / isomer B / isomer mixture as noted in the cell.
[2] abbreviates: method marker [a] (footnote not shown), isomer A / isomer B / isomer mixture as noted in the cell.

Molecules are shown by their SMILES.

The logP is a log measure of how a compound divides between an organic and an aqueous phase. In the case of `Cc1cccc(C(=NOCC2(CON=C(c3cccc(C)n3)C3CC3)CC(c3ccccc3Cl)=NO2)C2CC2)n1` (stereo not shown) [compound 648], the lipophilicity (logP) (method marked [a] in Table 1) is 4.46^[a].
Take `C=C(CON=C(SCCC)c1cccc(C)n1)CON=C(SCCC)c1cccc(C)n1` [compound 819]: the lipophilicity (logP) (value marked [a]) was 4.9^[a].
With `CCC(=NOCC(C)(C)CON=C(CC)c1cc(C)cc(C)n1)c1cc(C)cc(C)n1` (mixture of isomers) [Compound 571], for the setting “method marked [a] in Table 1”, the logP was 3.92^[a].
Consider `CC(=NOCC(F)CON=C(C)c1cccc(C)n1)c1cccc(C)n1` (stereo not shown) [Compound 212], for which the logP under setting [1] is 2.94^[b].
Consider `CC(=NOCc1ccc(CON=C(C)c2nc(C)c(C)s2)cc1)c1nc(C)c(C)s1` [compound 736], for which, where the note is “method marked [b] in Table 1”, the logP was 5.84^[b].
`C=C(CON=C(C)c1cc(C)ccn1)CON=C(C)c1cccc(C)n1` [compound 398]: the logP (value marked [b]) is 2.76^[b].
Take `COCc1nc(/C(N)=N/OCCCCO/N=C(\N)c2nc(COC)c(C)c(COC)n2)nc(COC)c1C` [compound 37]: the logP under setting [1] was 1.75^[b].
In the case of `CC(=NOCCCCCCON=C(c1cccc(C)n1)C1CC1)c1cccc(C)n1` [compound 347], the log partition coefficient (logP) (value marked [b]) was 4.56^[b].
With `CCC(=NOCC1(CON=C(CC)c2cccc(C)n2)CC(c2ccccc2Cl)=NO1)c1cccc(C)n1` (stereo not shown) [compound 654], the logP (method marked [a] in Table 1) is 5.69^[a].
With `CC(=NOCc1cccc(CON=C(C)c2cccc(C)n2)c1)c1cccc(C)n1` [compound 704], the logP (method marked [b] in Table 1) was 4.17^[b].
Take `CC(=NOCCCCON=C(C)c1sc(C)nc1C)c1cccc(C)n1` (single isomer, unassigned) [compound 374]: the log partition coefficient (logP) (value marked [b]) is 3.56^[b] (isomer B).
For `CC(=NOCCC(C)ON=C(C)c1cccc(C)n1)c1cccc(C)n1` (stereo not shown) [Compound 295], the log partition coefficient (logP) (value marked [b]) was 3.34^[b].
The same measure, in the same setting: the figure for `CC(=NOCC(C)(C)CON=C(c1ccccc1)c1cccc(C)n1)c1cccc(C)n1` [Compound 371] is 4.51^[b]; for `C=C(CON=C(C)c1nc(C)ccc1OC)CON=C(C)c1nc(C)ccc1OC` [Compound 283] it is 2.05^[b].
With `CC(=NOCC(C)CON=C(C)c1cc(CO)cc(C)n1)c1cc(CO)cc(C)n1` (stereo not shown) [compound 868], the lipophilicity (logP) reads like this: (value marked [b]) 1.31^[b]; (value marked [c]) 2.67^[c].
For the molecule `CC(=NOCCCCON=C(C)c1cccc(C)n1)c1ccccc1` [compound 385], the lipophilicity (logP) (value marked [b]) is 4.68^[b].
Take `COc1c(Cl)cc(C(C)=NOCC(C)CON=C(C)c2cc(Cl)c(OC)c(C)n2)nc1C` (stereo not shown) [compound 839]: the logP (value marked [b]) was 7.36^[b] and the log partition coefficient (logP) (value marked [c]) is 7.36^[c].
Regarding `CC(=NOCC(C)CON=C(C)c1ccc(C)nc1)c1ccc(C)nc1` (mixture of isomers) [compound 233], under setting [2], the lipophilicity (logP) is 1.50^[a].
Regarding `Cc1cccc(C(=NOCC2(CON=C(c3cccc(C)n3)C3CC3)CC(c3cccc(Cl)c3)=NO2)C2CC2)n1` (stereo not shown) [compound 655], the logP (method marked [a] in Table 1) is 4.54^[a].
For the molecule `CC(=NOCCCCCCON=C(C)c1cccc(C)n1)c1ccc2c(c1)OCO2` [compound 390], where the note is “value marked [b]”, the lipophilicity (logP) was 5.42^[b].
As to `COc1cc(C)nc(C(C)=NOCC2(CON=C(C)c3cc(OC)cc(C)n3)CC2)c1` [Compound 816], the log partition coefficient (logP) (value marked [a]) is 1.34^[a] and the logP (value marked [c]) was 4.94^[c].
For `Cc1cccc(C(CC(C)C)=NOCCCON=C(CC(C)C)c2cccc(C)n2)n1` (single isomer, unassigned) [compound 114], under setting [2], the log partition coefficient (logP) was 5.92^[a] (isomer A).
Take `Cc1cccc(C(=NOCC(C)CON=C(c2cccc(C)n2)C(F)(F)F)C(F)(F)F)n1` (stereo not shown) [compound 214]: the lipophilicity (logP) under setting [1] was 4.83^[b].
With `CC(=NOCC(C)CON=C(C)c1cccc(C#N)n1)c1cccc(C#N)n1` (stereo not shown) [Compound 800], the logP (value marked [a]) was 4.78^[a].
As for `CC(=NOCCCCON=C(C)c1cccc(C)n1)c1cncc(C)c1` [compound 337], under “value marked [b]”, the logP was 2.20^[b].
In the case of `CC(=NOCC(C)CON=C(C)c1ccc(C)o1)c1ccc(C)o1` (mixture of isomers) [compound 585], where the note is “method marked [a] in Table 1”, the logP is 4.70^[a].
Regarding `C=C(CON=C(C)c1cccc(-c2ccccc2)n1)CON=C(C)c1cccc(-c2ccccc2)n1` [compound 567], the logP worked out at 7.26 (method marked [b] in Table 1) and 7.27 (method marked [c] in Table 1).
In the case of `CCC(=NOCC1(CON=C(CC)c2cccc(C)n2)CC(C)=NO1)c1cccc(C)n1` (stereo not shown) [compound 605], the logP (method marked [b] in Table 1) was 3.42^[b].
On to `N/C(=N\OCCCCO/N=C(\N)c1ncc(F)cc1F)c1ncc(F)cc1F` [compound 38], for which the lipophilicity (logP) under setting [1] is 2.45^[b].
As for `CC(=NOCC1(CON=C(C)c2cc(C)cc(C)n2)CCC1)c1cc(C)cc(C)n1` [Compound 562], the logP reads like this: (method marked [b] in Table 1) 2.90^[b]; (method marked [c] in Table 1) 6.93^[c].
On to `C/C(=N\OCC(C)(C)CON)c1cc(C(F)(F)F)cc(C)n1` [XII-16], for which the logP runs as follows: ([a] acidic range, pH 2.3, 0.1% aqueous phosphoric acid and acetonitrile) 2.69^[a]; ([b] LC-MS, acidic range, pH 2.7, 0.1% aqueous formic acid and acetonitrile) 2.69^[b]; ([c] LC-MS, neutral range, pH 7.8, 0.001 molar aqueous ammonium bicarbonate solution and acetonitrile) 3.92^[c].
For `C=C(CON=C(C)c1cccc(C)n1)CON=C(N)c1nc(C)c2c(n1)CCCC2` [Compound 182], the lipophilicity (logP) under setting [1] is 2.55^[b].
In the case of `CC(=NOCC(C)(C)CON=C(C)c1cccc2ccccc12)c1cccc(C)n1` [compound 417], under “value marked [b]”, the logP was 5.90^[b].
As for `CC(=NOCC(C)(C)CON=C(C)c1cccc(Cl)n1)c1cccc(Cl)n1` [compound 569], the lipophilicity (logP) (method marked [a] in Table 1) was 6.50^[a].
As to `Cc1cccnc1C(CC(C)C)=NOCC(C)CON=C(CC(C)C)c1ncccc1C` (single isomer, unassigned) [compound 110], under setting [2], the logP was 5.78^[a] (isomer A).
`CCC(CON=C(C)c1nc(C)ccc1C)CON=C(C)c1nc(C)ccc1C` (single isomer, unassigned) [compound 751]: the logP reads like this: (method marked [b] in Table 1) 3.19^[b]; (method marked [c] in Table 1) 5.54^[c].
Turning to `CC(=NOCC(C)(C)CON=C(C)c1ccc(Cl)s1)c1cccc(C)n1` [Compound 486], the logP (value marked [b]) was 5.84^[b].
With `CC(=NOCCC(C)ON=C(C)c1cc(C)cc(C)n1)c1cc(C)cc(C)n1` (stereo not shown) [Compound 558], the lipophilicity (logP) by setting is: (method marked [b] in Table 1) 2.00^[b]; (method marked [c] in Table 1) 6.11^[c].
Regarding `CC(=NOCCCCON=C(C)c1cccc(C)n1)c1cccc(C)n1` [compound 6], under setting [1], the logP is 3,16^[b].
In the case of `CC(=NOC(=O)N(C)C(=O)ON=C(C)c1ccc(C)c(C)n1)c1ccc(C)c(C)n1` [compound 674], the logP (method marked [b] in Table 1) was 2.79^[b].
Consider `CC(=NOCc1cccc(CON=C(C)c2ccccn2)c1)c1ccccn1` [compound 731], for which the log partition coefficient (logP) (method marked [b] in Table 1) is 3.72^[b].
Take `CC(=NOCC(CON=C(C)c1ccc(C)c(C)n1)C(C)C)c1ccc(C)c(C)n1` (stereo not shown) [Compound 681]: the log partition coefficient (logP) (method marked [b] in Table 1) was 4.57^[b] and the log partition coefficient (logP) (method marked [c] in Table 1) was 7.18^[c].
Consider `C=C(CON=C(C)c1ccc(C)cn1)CON=C(C)c1cccc(C)n1` [compound 209], for which the logP under setting [1] is 3.33^b].
Take `COC(CON=C(C)c1cccc(C)n1)CON=C(C)c1cccc(C)n1` (stereo not shown) [Compound 294]: under “value marked [b]”, the logP is 2.22^[b].
For the molecule `CC(=NOCC1(CON=C(C)c2ccc(C)c(C)n2)CC(C(C)(C)C)=NO1)c1ccc(C)c(C)n1` (stereo not shown) [compound 631], the lipophilicity (logP) (method marked [b] in Table 1) was 3.65^[b].
Take `CC(=NOCC1(CON=C(C)c2ccc(C)c(C)n2)CC(CC(C)C)=NO1)c1ccc(C)c(C)n1` (stereo not shown) [compound 630]: the lipophilicity (logP) (method marked [b] in Table 1) was 3.70^[b].
As to `CCC(=NOCC1(CON=C(CC)c2cc(C)cc(C)n2)CC1)c1cc(C)cc(C)n1` (mixture of isomers) [Compound 570], the logP (method marked [a] in Table 1) was 3.22^[a].
With `CC(=NOC1CCC(ON=C(C)c2cccc(C3CC3)n2)C1)c1cccc(C2CC2)n1` (mixture of isomers) [compound 813], the log partition coefficient (logP) (value marked [a]) is 7.36^[a].
With `CCC1=NOC(CO/N=C(\C)c2cccc(C)n2)(CO/N=C(\C)c2cccc(C)n2)C1` [(1E,1′E)-1-(6-methylpyridin-2-yl)ethanone O,O′-[(3-ethyl-4,5-dihydroisoxazole-5,5-diyl)bis(methylene)]oxime], where the note is “reversed-phase HPLC column (C 18), HCO2H, HPLC reversed-phase column (C 18), 43° C., read-out: logP (HCO2H)”, the chromatographic logP amounted to 2.68.
For the molecule `CC(=NOCC1(CON=C(C)c2nc(C)ccc2C)COC(=O)N1)c1nc(C)ccc1C` (stereo not shown) [compound 859], the log partition coefficient (logP) was 1.70^[b] (value marked [b]) and 2.81^[c] (value marked [c]).
Regarding `CC(=NOC[Si](C)(C)CON=C(C)c1cccc(C)n1)c1cccc(C)n1` [Compound 292], the lipophilicity (logP) (value marked [a]) was 4.50^[a].
On to `C=C(CON=C(C)c1nc(OC)cc(OC)n1)CON=C(C)c1nc(OC)cc(OC)n1` [compound 565], for which the logP (method marked [b] in Table 1) is 4.10^[b] and the logP (method marked [c] in Table 1) is 4.10^[c].
Turning to `C=C(CON=C(C)c1cccc(C)n1)CON=C(CCC)c1cccc(C)n1` [compound 355], the logP (value marked [b]) is 4.87^[b].
For the molecule `CC(=NOCCCON=C(C)c1csc(Cl)n1)c1csc(Cl)n1` (mixture of isomers) [compound 232], the logP under setting [2] is 4.69^[a].
Take `CC(=NOCCCCCCON=C(C)c1cccc(C)n1)c1cc(C)ccn1` [compound 386]: the logP (value marked [b]) is 3.94^[b].
On to `COc1cccc(C(C)=NOCCCCON=C(C)c2cccc(C)n2)c1` [compound 443], for which the logP (value marked [b]) was 4.57^[b].
On to `C=C(CON=C(C)c1cccc(C)n1)CON=C(C)c1nc(C)cc(OC)n1` (single isomer, unassigned) [Compound 177], for which, under setting [1], the log partition coefficient (logP) is 3.08^[b] (isomer A).
As to `CC(=NOCC(C)(C)CON=C(C)c1cccc(-c2cc(Cl)cc(Cl)c2)n1)c1cccc(-c2cc(Cl)cc(Cl)c2)n1` [compound 578], the lipophilicity (logP) (method marked [a] in Table 1) is recorded as 7.36^a].
Take `CC(=NOCc1ccc(CON=C(C)c2ccccn2)cc1)c1ccccn1` [compound 734]: the logP (method marked [b] in Table 1) is 3.76^[b].
`CC(=NOCC(CON=C(C)c1cccc(C)n1)C(C)C)c1cccc(C)n1` (stereo not shown) [Compound 680]: the logP (method marked [b] in Table 1) was 5.03^[b] and the logP (method marked [c] in Table 1) is 6.40^[c].
